Results from patent US20130345254A1, “CYCLOHEXANE SUBSTITUTED AMINO CYCLOPENTANE DERIVATIVES AS USEFUL CCR2 ANTAGONISTS” (priority 2011, published 2013).

Target: T1, human CCR2 (Homo sapiens, UniProt P41597)
T1 construct: expressed in transfected cells; host or cells: Ba/F3 cells (membrane preparation)
Assay: CCR2 membrane binding assay (SPA, 125I-rhMCP-1 competition)
Details: membranes from Ba/F3 cells transfected with human CCR2; 0.03 nM 125I-rhMCP-1; 4 h room temperature
Description: The radio-ligand binding assay was done using scintillation proximity assay (SPA) technology. Briefly, membranes (1 μg per assay point) from Ba/F3 cells transfected with human CCR2, and wheat germ agglutinin-coated SPA beads (80 μg per point; Amersham, Arlington Heights, Ill.), were pre-incubated for 30 min at room temperature in CCR2 buffer (50 mM HEPES (pH=7.4), 10 mM MgCl2, 10 mM NaCl, 1 mM CaCL2, 0.1% BSA, 10 μg/ml Saponin). At this point pre-bound SPA bead, membrane complex was incubated at room temperature for 4 h with varying concentrations of punitive CCR2 antagonists (in 1% DMSO, final) and 0.03 nM ^125I-rhMCP-1 in CCR2 Buffer (S.A. 2200 Ci/mmol, PerkinElmer Life and Analytical Science, Boston, Mass.; NEX332). Binding competition was measured using a 1450 Microbeta Trilux counter (Wallac, Gaithersburg, Md.). Binding constants (IC50 and slope) were calculated using GraphPad Prism software (GraphPad Software, Inc., La Jolla Calif.).

T1 sequence (P41597 whole entry): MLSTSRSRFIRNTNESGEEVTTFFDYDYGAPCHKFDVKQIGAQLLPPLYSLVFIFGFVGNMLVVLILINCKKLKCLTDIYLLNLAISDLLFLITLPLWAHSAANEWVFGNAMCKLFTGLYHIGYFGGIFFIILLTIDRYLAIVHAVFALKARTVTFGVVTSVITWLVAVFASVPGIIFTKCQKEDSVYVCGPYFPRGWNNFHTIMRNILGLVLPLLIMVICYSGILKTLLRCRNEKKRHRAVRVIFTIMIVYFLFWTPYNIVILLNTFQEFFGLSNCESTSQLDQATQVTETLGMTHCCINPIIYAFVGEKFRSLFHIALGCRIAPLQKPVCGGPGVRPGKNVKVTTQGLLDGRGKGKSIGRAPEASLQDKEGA

SMILES: CC=C1CCC(N[C@@H]2CC[C@@](C(=O)N3CCc4ncc(C(F)(F)F)cc4C3)(C(C)C)C2)CC1 (some centres unmarked) [Compound 2]
- IC50: 0.009 µM

SMILES: CC=C1CCC(N[C@@H]2CC[C@H](C(=O)NCc3cc(C(F)(F)F)cc(C(F)(F)F)c3)C2)CC1 (some centres unmarked) [Compound 1]
- IC50: 2.1 µM
